Laboratory results published in patent US9050295B2, “Composition for treatment of tuberculosis” (ETH Zurich, priority 2007, dated 2015).

Target: EthR-VP16 binding to PethR (Mycobacterium bovis, UniProt Q7TVI1)
Type: cell-based, E. coli BL21(DE3)

Sequence of EthR-VP16 binding to PethR (Q7TVI1 whole entry, looked up): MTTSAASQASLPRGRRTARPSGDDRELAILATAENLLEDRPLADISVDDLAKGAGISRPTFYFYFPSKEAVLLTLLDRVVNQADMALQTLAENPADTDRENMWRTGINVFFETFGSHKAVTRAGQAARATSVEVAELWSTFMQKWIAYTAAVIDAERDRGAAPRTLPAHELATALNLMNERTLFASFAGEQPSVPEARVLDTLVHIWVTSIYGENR

## CCCC(=O)OCCc1ccccc1 [2-Phenylethyl butyrate]
  green fluorescence (EthR-controlled GFP expression): adjustable green fluorescence
